Results: patent publication US11865098B1, “Methods and compositions for treating excessive sleepiness” (Axsome Malta Ltd., priority 2017, dated 2024)

Columns and labels:
Assay type in all cases: in vivo, human
[1] = tested on: adults with OSA and excessive sleepiness; experiment: Epworth Sleepiness Scale (ESS), phase 3 randomized withdrawal study in OSA; conditions: for ESS score after 4 weeks of APC treatment: randomized patients, mITT
Procedure: The ESS is a subjective sleepiness test that is well known in the art and routinely used to measure the sleepiness level of a subject. The scale is intended to measure daytime sleepiness through the use of a short questionnaire that asks the subject to rate his or her probability of falling asleep on a scale of increasing probability from 0 to 3 for eight different situations that most people engage in during their daily lives. The scores for the eight questions are added together to obtain a single number that estimates the subject's average sleep propensity (ASP). A number in the 0-10 range is considered to be normal while 11-12 indicates mild excessive sleepiness, 13-15 indicates moderate excessive sleepiness, and 16 or higher indicates severe excessive sleepiness. Narcolepsy patients have an average score of about 17. Obstructive sleep apnea (OSA) patients with excessive sleepiness have an average score of about 15.
(§1) The study was a double-blind, placebo-controlled, enriched, randomized withdrawal design (FIG. 1). In the Titration Phase (weeks 1-2), patients started on a once-daily dose of APC 75 mg and could be titrated up or down every 3 days to reach a maximum tolerated dose of APC 75, 150, or 300 mg. In the Stable-Dose Phase (weeks 3-4), patients continued to receive the dose that they were titrated to in the Titration Phase for 2 weeks. […]
(§2) Efficacy was based on change from week 4 to 6 on the co-primary endpoints of MWT and ESS and percentage of patients reported as improved on the PGI-C and Clinician Global Impression of Change (CGI-C); assessed on a 7-point scale from 1 (very much improved) to 7 (very much worse).
(§3) MWT and ESS data were analyzed using a mixed-effect model repeated measures (MMRM); PGI-C and CGI-C were evaluated using a chi-square test. […] Safety and tolerability were evaluated based on treatment-emergent adverse events (TEAEs), vital signs, and laboratory values.

[2] = tested on: adult patients with OSA and ES; experiment: FOSQ-10, 12-week parallel study in OSA
Procedure: The study was a 12-week, double-blind, placebo-controlled, parallel design study as described in greater detail in Example 1 (Schweitzer et al., Sleep 40(Abstract Supplement):A237. Abstract 0641 (2017)). Patients were randomized (1:1:2:2:2) to APC 37.5, 75, 150, 300 mg, or placebo for 12 weeks, and were stratified by adherence or non-adherence with primary OSA therapy (adherent definition was use for ≥4 hours per night on >70% of nights). Two patient-reported measures were included as secondary efficacy outcomes to evaluate the effects of APC on functional status and work productivity and activity impairment at baseline and weeks 1, 4, 8, and 12. The Functional Outcomes of Sleep questionnaire short version (FOSQ-10) (Chasens et al., Sleep 32(7):915 (2009)) evaluated the effects of ES on functioning. The Work Productivity and Activity Impairment questionnaire for Specific Health Problems (WPAI:SHP) (Reilly et al., Pharmacoeconomics 4(5):353 (1993); Reilly, Work Productivity and Activity Impairment Questionnaire: Specific Health Problem V2.0 (WPAI: SHP). www.reillyassociates.net/WPAI_SHP) evaluated work productivity impairment among employed patients and overall activity impairment outside of work among all patients for the past 7 days. Four outcomes are available from the WPAI:SHP: Absenteeism (percent work time missed due to health); Presenteeism (percent impairment while working due to health); Percent overall work impairment (calculated from absenteeism and presenteeism); and Percent activity impairment due to health. The FOSQ-10 was evaluated as change over time compared with placebo (least squares (LS) mean); the 4 WPAI outcomes were evaluated at week 12 compared to placebo. Efficacy analyses were based on the modified intent-to-treat population (mITT) and there was no multiplicity adjustment for the FOSQ-10 or WPAI:SHP. Safety and tolerability were assessed based on treatment-emergent adverse events (TEAEs), vital signs, electrocardiogram test, physical exams, Columbia-Suicide Severity Rating Scale, and laboratory tests in the safety population.

[3] = tested on: adults with OSA and excessive sleepiness; experiment: Maintenance of Wakefulness Test (MWT), phase 3 randomized withdrawal study in OSA; conditions: for MWT mean sleep latency after 4 weeks of APC treatment: randomized patients, mITT, 75, 150 or 300 mg once daily
Procedure: The MWT is an objective test used to measure how alert a subject is during the day. The test consists of four sleep trials with two hours in between the trials. The first trial is performed 1.5-3 hours after the subject's normal wake-up time. Sensors are placed on the head, face, and chin to detect when the subject is asleep and awake during the test. The subject sits quietly in bed with his or her back and head supported by a pillow and is asked to sit still and look straight ahead while trying to stay awake as long as possible. Each trial lasts 40 minutes or until the subject is asleep for 90 seconds. Between trials, the subject stays out of bed and occupies himself or herself to remain awake. Falling asleep in an average of less than eight minutes is considered abnormal. About 40-60% of subjects with normal sleep stay awake for the entire 40 minutes of all four trials.
as §1, §2, §3

[4] = tested on: adult patients with OSA and ES; experiment: PGI-C, 12-week placebo-controlled parallel study in OSA; conditions: 37.5, 75, 150, 300 mg; week 12; listed as APC
Procedure: The study was a 12-week, double-blind, placebo-controlled, parallel design study as described in greater detail in Example 1 (Schweitzer et al., Sleep 40(Abstract Supplement):A237. Abstract 0641 (2017)). Patients were randomized (1:1:2:2:2) to APC 37.5, 75, 150, 300 mg, or placebo for 12 weeks, and were stratified by adherence or non-adherence with primary OSA therapy (adherent definition was use for ≥4 hours per night on >70% of nights). Two patient-reported measures were included as secondary efficacy outcomes to evaluate the effects of APC on functional status and work productivity and activity impairment at baseline and weeks 1, 4, 8, and 12. The Functional Outcomes of Sleep questionnaire short version (FOSQ-10) (Chasens et al., Sleep 32(7):915 (2009)) evaluated the effects of ES on functioning. The Work Productivity and Activity Impairment questionnaire for Specific Health Problems (WPAI:SHP) (Reilly et al., Pharmacoeconomics 4(5):353 (1993); Reilly, Work Productivity and Activity Impairment Questionnaire: Specific Health Problem V2.0 (WPAI: SHP). www.reillyassociates.net/WPAI_SHP) evaluated work productivity impairment among employed patients and overall activity impairment outside of work among all patients for the past 7 days. […]

Structure (SMILES): NC(=O)OC[C@H](N)Cc1ccccc1 [JZP-110, (R)-2-amino-3-phenylpropyl carbamate]
- Mean decrease in ESS score from week 4 to week 6 ([1]; Double-Blind Withdrawal Phase, patients who stayed on APC, P<0.0001 vs switched to placebo): 0.1
- ESS score after 4 weeks of APC treatment ([1]; group decreased from 15.3 at baseline): 6.4
- ESS score after 4 weeks of APC treatment ([1]; group decreased from 16.0 at baseline): 5.9
- FOSQ-10 scores at week 12 ([2]; 37.5 to 300 mg, mITT): dose dependently increased FOSQ-10 scores
- FOSQ-10, time at which improvements were observed ([2]; 150 and 300 mg doses): as early as week 1
- FOSQ-10 scores at week 12, effect relative to placebo ([2]; 150 and 300 mg doses): statistically significant effects
- Change in mean MWT sleep latency from week 4 to week 6 ([3]; Double-Blind Withdrawal Phase, patients who remained on JZP-110, P<0.0001 vs switched to placebo): -1.0 min
- MWT mean sleep latency after 4 weeks of APC treatment ([3]; group increased from 12.3 at baseline): 29.0 min
- MWT mean sleep latency after 4 weeks of APC treatment ([3]; group increased from 13.1 at baseline): 31.7 min
- Key secondary endpoint, PGI-C [4]: met at all doses except for APC 37.5 mg
